Like-named read-outs stand apart in the source and are kept apart here. Starred links: 1 amine or outer side, 2 acyl side, 3 side chain; linkers in the order of their positions; H or OH if unused. Positions of bridges follow the written chain, without caps; N, C: chain ends. Non-standard residues stand in square brackets, D forms with d. Residues, ends and D or L forms follow the SMILES beside them. *: point of attachment. Phe(4-(CH2)5CO) = O=C([C@H](Cc1ccc(CCCCCC(=O)[*:3])cc1)N[*:1])[*:2]; Ala(4-thiazolyl) = N[C@@H](Cc1cscn1)C(=O)O; NMeF = CN[C@@H](Cc1ccccc1)C(=O)O; NMeI = CC[C@H](C)[C@H](NC)C(=O)O; NMeβAla = CN(CCC(=O)[*:2])[*:1]; NMeL = CN[C@@H](CC(C)C)C(=O)O; NMeV = CN[C@H](C(=O)O)C(C)C; NMeA = CN[C@@H](C)C(=O)O; Piperidide = C1CCN(*)CC1; dNMeA = CN[C@H](C)C(=O)O; Sar = CNCC(=O)O; tBu = CC(C)(C)*
Assay: Metabolic stability in human hepatic microsome
Assay type: in vitro ADME
Settings: for microsomal CLint at 1 uM: microsomes
[1] = pH 7.4, human hepatic microsome, NADPH(+), read-out: CL NADPH(+)

| Structure (SMILES) | microsomal CLint at 1 uM [1] | also measured |
| --- | --- | --- |
| CC(C)C[C@H]1C(=O)N[C@@H](COC(C)(C)C)C(=O)N[C@H](C(=O)N2CCCCC2)CCC(=O)N(C)[C@@H](C)C(=O)N(C)[C@@H](C)C(=O)N(C)[C@@H](Cc2ccccc2)C(=O)N(C)[C@@H](CC(C)C)C(=O)N[C@@H]([C@@H](C)O)C(=O)N(C)CC(=O)N1C [Compound P-122, MeAla-MeAla-MePhe-MeLeu-Thr-MeGly-MeLeu-Ser(tBu)-Glu-piperidine] ([NMeA][NMeA][NMeF][NMeL]T[Sar][NMeL]S(tBu)E-Piperidide; lactam N-9) | – | Hepatic microsome CLhint (Human) In the absence of NADPH: 1 ul/min/mg Protein; microsomal CLint at 1 uM (human, pH 7.4, Hepatic microsome CLhint (Human) In the presence of NADPH): 11 µL/min/mg |
| C=C1CCC(=O)N[C@@H](CC(C)C)C(=O)N[C@@H](Cc2ccccc2)C(=O)N[C@@H]([C@@H](C)O)C(=O)N[C@@H](CC(C)C)C(=O)N(C)[C@@H](C)C(=O)N[C@@H](Cc2ccccc2)C(=O)NCC(=O)N[C@@H](C(C)C)C(=O)N[C@@H](CC(C)C)C(=O)N[C@@H](C)C(=O)N(C)[C@@H](CC(C)C)C(=O)N[C@H](C(=O)N2CCCCC2)Cc2ccc1cc2 [DP-898] | 21 µL/min/mg | – |
| CC[C@H](C)[C@@H]1NC(=O)[C@H](C)N(C)C(=O)CCCCCc2ccc(cc2)C[C@@H](C(=O)N2CCCCC2)NC(=O)[C@H](CC(C)C)N(C)C(=O)[C@H](CC(C)C)N(C)C(=O)[C@H](C)N(C)C(=O)[C@H]([C@@H](C)O)NC(=O)[C@H](Cc2ccccc2)N(C)C(=O)[C@H](Cc2ccccc2)N(C)C1=O [DP-841] ([NMeA]I[NMeF][NMeF]T[NMeA][NMeL][NMeL][Phe(4-(CH2)5CO)]-Piperidide; lactam N-9) | 386 µL/min/mg | – |
| CC(C)C[C@@H]1NC(=O)[C@H](CC(C)C)N(C)C(=O)[C@H](C)N(C)C(=O)[C@H](C(C)C)NC(=O)[C@H](Cc2ccccc2)NC(=O)CNC(=O)[C@H]([C@@H](C)O)NC(=O)[C@H](CC(C)C)NC(=O)[C@@H]2CCCN2C(=O)[C@H](Cc2ccccc2)NC(=O)[C@H](C)NC(=O)C[C@@H](C(=O)N2CCCCC2)NC1=O [DP-23] (AFPLTGFV[NMeA][NMeL]LD-Piperidide; lactam N-12) | – | microsomal CLint at 1 uM (human, pH 7.4, CL NADPH(+)): 105 µL/min/mg |
| CC(C)C[C@@H]1NC(=O)[C@H](CC(C)C)N(C)C(=O)[C@H](C)N(C)C(=O)[C@H](Cc2ccccc2)NC(=O)C[C@@H](C(=O)N2CCCCC2)NC(=O)[C@H]([C@@H](C)O)NC(=O)[C@H](C(C)C)N(C)C(=O)CN(C)C(=O)[C@H](CC(C)C)N(C)C(=O)[C@@H](C(C)C)NC(=O)[C@H](Cc2ccccc2)N(C)C1=O [DP-616] (F[NMeA][NMeL]L[NMeF][dV][NMeL][Sar][NMeV]TD-Piperidide; lactam N-11) | 69 µL/min/mg | – |
| CC[C@H](C)[C@@H]1NC(=O)[C@H](CC(C)C)N(C)C(=O)[C@H](Cc2ccccc2)NC(=O)[C@H](CC(C)C)N(C)C(=O)[C@H](CC(C)C)NC(=O)[C@H](Cc2ccccc2)NC(=O)[C@H]([C@@H](C)O)NC(=O)[C@H](C)N(C)C(=O)[C@H](CC(C)C)NC(=O)CCN(C)C(=O)C[C@@H](C(=O)N2CCCCC2)NC1=O [DP-325] ([NMeβAla]L[NMeA]TFL[NMeL]F[NMeL]ID-Piperidide; lactam N-11) | 99 µL/min/mg | – |
| CC[C@H](C)[C@@H]1NC(=O)[C@H](Cc2ccccc2)N(C)C(=O)[C@H](Cc2ccccc2)NC(=O)[C@H](C(C)C)N(C)C(=O)[C@H](CC(C)C)N(C)C(=O)[C@H](CC(C)C)NC(=O)[C@H](C)NC(=O)C[C@@H](C(=O)N2CCCCC2)NC(=O)[C@H]([C@@H](C)O)NC(=O)CNC(=O)[C@@H]2CCCN2C1=O [DP-14] (AL[NMeL][NMeV]F[NMeF]IPGTD-Piperidide; lactam N-11) | – | microsomal CLint at 1 uM (human, pH 7.4, CL NADPH(+)): 57 µL/min/mg |
| CC(C)C[C@H]1C(=O)N(C)CC(=O)N(C)[C@@H](C)C(=O)N[C@@H]([C@@H](C)O)C(=O)N[C@H](C(=O)N2CCCCC2)CC(=O)N[C@H](C(C)C)C(=O)N(C)[C@@H](C)C(=O)N(C)[C@@H](CC(C)C)C(=O)N[C@@H](Cc2c[nH]c3ccccc23)C(=O)N(C)[C@@H](Cc2ccccc2)C(=O)N[C@@H](Cc2ccccc2)C(=O)N1C [DP-623] ([dV][NMeA][NMeL]W[NMeF]F[NMeL][Sar][NMeA]TD-Piperidide; lactam N-11) | 16 µL/min/mg | – |
| CC[C@H](C)[C@H]1C(=O)N[C@H](C(=O)N2CCCCC2)CC(=O)N[C@@H](C)C(=O)N(C)[C@@H](C)C(=O)N(C)[C@@H](Cc2ccccc2)C(=O)N(C)[C@@H](CC(C)C)C(=O)N[C@@H]([C@@H](C)O)C(=O)N(C)CC(=O)N(C)[C@@H](CC(C)C)C(=O)N[C@@H](COC(C)(C)C)C(=O)N1C [Compound P-125, Ala-MeAla-MePhe-MeLeu-Thr-MeGly-MeLeu-Ser(tBu)-MeIle-Asp-piperidine] (A[NMeA][NMeF][NMeL]T[Sar][NMeL]S(tBu)[NMeI]D-Piperidide; lactam N-10) | – | Hepatic microsome CLhint (Human) In the absence of NADPH: 1 ul/min/mg Protein; Hepatic microsome CLhint (Human) In the presence of NADPH (Table 10, with NADPH): 35 ul/min/mg Protein |
| C=C1CCC(=O)N[C@@H](C(C)C)C(=O)N(C)[C@@H](CC(C)C)C(=O)N(C)CC(=O)N(C)[C@@H](CC(C)C)C(=O)N(C)[C@@H]([C@@H](C)CC)C(=O)N[C@@H](C)C(=O)N(C)[C@@H](Cc2ccccc2)C(=O)N(C)[C@@H](Cc2ccccc2)C(=O)N[C@@H]([C@@H](C)O)C(=O)N(C)[C@@H](CC(C)C)C(=O)N2CCC[C@H]2C(=O)N[C@H](C(=O)N2CCCCC2)Cc2cccc1c2 [DP-899] | 32 µL/min/mg | – |
| CC(C)C[C@@H]1NC(=O)[C@H](CC(C)C)N(C)C(=O)[C@H](CC(C)C)N(C)C(=O)[C@H](C)NC(=O)[C@H](Cc2ccccc2)N(C)C(=O)[C@H](CCC(=O)N(C)C)NC(=O)[C@H](CC(C)C)N(C)C(=O)[C@H](Cc2ccccc2)NC(=O)[C@H](C)NC(=O)C[C@@H](C(=O)N(C)[C@@H](Cc2ccccc2)C(=O)N[C@@H](C)C(=O)N2CCCCC2)NC1=O [DP-603] (AF[NMeL]E(NMe2)[NMeF]A[NMeL][NMeL]LD[NMeF]A-Piperidide; lactam N-10) | 17 µL/min/mg | – |
| CC(C)C[C@@H]1NC(=O)[C@H](CC(C)C)N(C)C(=O)[C@H](CC(C)C)N(C)C(=O)CNC(=O)[C@H](Cc2ccccc2)N(C)C(=O)[C@H](Cc2cscn2)NC(=O)[C@H](CC(C)C)N(C)C(=O)[C@H](Cc2ccccc2)NC(=O)[C@H](C)NC(=O)C[C@@H](C(=O)N(C)[C@@H](Cc2ccccc2)C(=O)N[C@@H](C)C(=O)N2CCCCC2)NC1=O [DP-609] (AF[NMeL][Ala(4-thiazolyl)][NMeF]G[NMeL][NMeL]LD[NMeF]A-Piperidide; lactam N-10) | 16 µL/min/mg | – |
| CC[C@H](C)[C@H]1C(=O)N[C@H](C(=O)N2CCCCC2)CC(=O)N[C@@H](C)C(=O)N[C@@H]([C@@H](C)O)C(=O)N(C)[C@@H](Cc2ccccc2)C(=O)N[C@@H](CC(C)C)C(=O)N2CCC[C@H]2C(=O)N[C@@H](C(C)C)C(=O)N[C@@H](Cc2ccccc2)C(=O)N(C)CC(=O)N[C@@H](CC(C)C)C(=O)N[C@@H](C)C(=O)N1C [DP-24] (AT[NMeF]LPVF[Sar]LA[NMeI]D-Piperidide; lactam N-12) | 52 µL/min/mg | – |
| C=C1CCC(=O)N(C)[C@@H](Cc2ccccc2)C(=O)N[C@@H](CC(C)C)C(=O)N(C)[C@@H](CC(C)C)C(=O)N[C@@H]([C@@H](C)O)C(=O)N(C)CC(=O)N(C)[C@@H]([C@@H](C)CC)C(=O)N[C@@H](COC(C)(C)C)C(=O)N(C)[C@@H](Cc2ccccc2)C(=O)N(C)[C@@H](C(C)C)C(=O)N[C@H](C(=O)N2CCCCC2)Cc2ccc1cc2 [DP-850] | 119 µL/min/mg | – |
| CC[C@H](C)[C@H](NC(=O)[C@H](CC(C)C)NC(=O)[C@H](CC(C)C)N(C)C(=O)[C@@H]1CC(=O)N[C@H](C(C)C)C(=O)N[C@@H](CC(C)C)C(=O)N(C)[C@@H](CC(C)C)C(=O)N[C@@H]([C@@H](C)O)C(=O)N[C@@H](C(C)C)C(=O)N(C)[C@@H](CC(C)C)C(=O)N(C)[C@@H](Cc2ccccc2)C(=O)N1)C(=O)N1CCCCC1 [DP-933] ([dV]L[NMeL]TV[NMeL][NMeF]D[NMeL]LI-Piperidide; lactam N-8) | 43 µL/min/mg | – |
| CC(C)C[C@@H]1NC(=O)[C@H](C)NC(=O)C[C@@H](C(=O)N2CCCCC2)NC(=O)[C@H](CC(C)C)N(C)C(=O)[C@H](C)NC(=O)[C@H](CC(C)C)NC(=O)[C@H](C(C)C)NC(=O)CNC(=O)[C@H](Cc2ccccc2)NC(=O)[C@H](C)N(C)C(=O)[C@H](CC(C)C)NC(=O)[C@H]([C@@H](C)O)NC(=O)[C@H](Cc2ccccc2)NC1=O [DP-82] (ALFTL[NMeA]FGVLA[NMeL]D-Piperidide; lactam N-13) | 16 µL/min/mg | – |
| CC(C)C[C@@H]1NC(=O)[C@H](CC(C)C)N(C)C(=O)[C@H](C)N(C)C(=O)[C@@H](C(C)C)NC(=O)C[C@@H](C(=O)N2CCCCC2)NC(=O)[C@H]([C@@H](C)O)NC(=O)[C@H](C)N(C)C(=O)CN(C)C(=O)[C@H](CC(C)C)N(C)C(=O)[C@H](Cc2c[nH]c3ccccc23)NC(=O)[C@H](Cc2ccccc2)N(C)C1=O [DP-622] ([dV][NMeA][NMeL]L[NMeF]W[NMeL][Sar][NMeA]TD-Piperidide; lactam N-11) | 36 µL/min/mg | – |
| CC[C@H](C)[C@@H]1NC(=O)[C@H](CC(C)C)N(C)C(=O)CNC(=O)[C@H](C)NC(=O)C[C@@H](C(=O)N2CCCCC2)NC(=O)[C@@H]2CCCN2C(=O)[C@H](CC(C)C)NC(=O)[C@H](Cc2ccccc2)NC(=O)[C@H]([C@@H](C)O)NC(=O)[C@H](Cc2ccccc2)N(C)C(=O)[C@H](C)N(C)C1=O [DP-30] (AG[NMeL]I[NMeA][NMeF]TFLPD-Piperidide; lactam N-11) | – | microsomal CLint at 1 uM (human, pH 7.4, CL NADPH(+)): 63 µL/min/mg |
| CC(C)C[C@@H]1NC(=O)CN(C)C(=O)[C@H](C)NC(=O)[C@H]([C@@H](C)O)NC(=O)[C@@H](C)N(C)C(=O)C[C@@H](C(=O)N2CCCCC2)NC(=O)[C@H](CC(C)C)N(C)C(=O)[C@H](CC(C)C)NC(=O)[C@H](C(C)C)N(C)C(=O)[C@H](CC(C)C)NC(=O)[C@H](Cc2ccccc2)NC1=O [DP-328] ([dNMeA]TA[Sar]LFL[NMeV]L[NMeL]D-Piperidide; lactam N-11) | 32 µL/min/mg | – |
| CC[C@H](C)[C@@H]1NC(=O)[C@H](C)NC(=O)C[C@@H](C(=O)N2CCCCC2)NC(=O)[C@H](Cc2ccccc2)NC(=O)[C@H](C(C)C)NC(=O)[C@H](CC(C)C)NC(=O)[C@H](C)NC(=O)[C@H](Cc2ccccc2)N(C)C(=O)[C@H]([C@@H](C)O)NC(=O)[C@H](CC(C)C)NC(=O)[C@H](CC(C)C)N(C)C1=O [DP-13] (AI[NMeL]LT[NMeF]ALVFD-Piperidide; lactam N-11) | – | microsomal CLint at 1 uM (human, pH 7.4, CL NADPH(+)): 66 µL/min/mg |
